Experimental data published in the Deep4Chem optical property database.
Each block holds one compound with its values, some of them ahead of it.

Experiment: solvent given as SMILES
[1] = in c1cc(-n2c3ccccc3c3ccccc32)cc(-n2c3ccccc3c3ccccc32)c1

Compound: COc1ccc(C2=C3C(C)=CC(C)=[N+]3[B-](F)(F)n3c(C)cc(C)c32)cc1
fluorescence lifetime (in Cc1ccccc1): 4.86 ns

Compound: Cc1nc(-c2cc(C(F)(F)F)ccc2O)n2c1CCCC2
fluorescence lifetime (in ClCCl): 3.7 ns

Compound: CC(=O)OC[C@H]1O[C@@H](OCC#Cc2ccc(C3=C4C(C)=CC(/C=C/c5ccc([N+](C)(C)C)cc5)=[N+]4[B-](F)(F)n4c(/C=C/c5ccc([N+](C)(C)C)cc5)cc(C)c43)cc2)[C@H](OC(C)=O)C(OC(C)=O)[C@@H]1OC(C)=O (stereo not given in full)
fluorescence lifetime (in CC#N): 5.4 ns

Compound: N#Cc1ccc(N(c2ccccc2)c2ccc3ccc4c(N(c5ccccc5)c5ccc(C#N)cc5)ccc5ccc2c3c54)cc1
fluorescence lifetime (in ClCCl): 2.7 ns

Compound: C[Si](C)(C)c1ccc(-c2ccc(-c3ccc(-c4ccc(-c5ccc([Si](C)(C)C)cc5)cc4)c4nsnc34)cc2)cc1
fluorescence lifetime (in C1CCOC1): 5.4 ns

Compound: CC(C)(C)c1ccc2c(c1)c1cc(C(C)(C)C)ccc1n2-c1ccc(C(=CC#N)c2ccc(-n3c4ccc(C(C)(C)C)cc4c4cc(C(C)(C)C)ccc43)cc2)cc1
fluorescence lifetime (in Cc1ccccc1): 3.86 ns

Compound: Cc1cc(=O)[nH]c(=O)[nH]1
fluorescence lifetime (in CC#N): 0.0001 ns

Compound: COc1ccc(-c2ccc(-c3ccc(C#N)s3)s2)cc1
fluorescence lifetime (in C1CCCCC1): 0.23 ns
fluorescence lifetime (in C1COCCO1): 0.38 ns
fluorescence lifetime (in CC#N): 0.97 ns
fluorescence lifetime (in CC(C)O): 0.89 ns
fluorescence lifetime (in CCCCO): 0.91 ns
fluorescence lifetime (in CCO): 0.93 ns
fluorescence lifetime (in CCOC(C)=O): 0.44 ns
fluorescence lifetime (in CN(C)C=O): 1.44 ns
fluorescence lifetime (in CO): 1.06 ns
fluorescence lifetime (in CS(C)=O): 1.76 ns
fluorescence lifetime (in Cc1ccccc1): 0.34 ns
fluorescence lifetime (in ClC(Cl)Cl): 0.6 ns
fluorescence lifetime (in ClCCl): 0.74 ns
fluorescence lifetime (in O): 0.91 ns

Compound: Cn1nc(-c2ccccc2)c2n[nH]nc2/c1=N\c1ccccn1
fluorescence lifetime (in CC#N): 0.33 ns
fluorescence lifetime (in CCO): 0.44 ns
fluorescence lifetime (in Cc1ccccc1): 0.34 ns

Compound: CC1=N/C(=C\c2cc(N(C)C)ccc2C#N)C(=O)N1C
fluorescence lifetime (in C1CCOC1): 14.8 ns
fluorescence lifetime (in CC#N): 7 ns
fluorescence lifetime (in CCCCCC): 24.7 ns

Compound: CCCCCCCCC1(CCCCCCCC)c2cc(-c3ccc([N+](=O)[O-])cc3)ccc2-c2ccc(-c3ccc([N+](=O)[O-])cc3)cc21
fluorescence lifetime (in CN(C)C=O): 1.92 ns
fluorescence lifetime (in CS(C)=O): 1.82 ns

Compound: Cc1cc(C)c(B(c2cc3ccc4cccc5ccc(c2)c3c45)c2c(C)cc(C)cc2C)c(C)c1
fluorescence lifetime (in Cc1ccccc1): 49 ns

Compound: c1ccc(-c2nc(-c3ccccc3)nc(-c3ccc(-n4c5ccccc5c5cc6c(cc54)C4(c5ccccc5-c5ccccc54)c4ccccc4-6)cc3)n2)cc1
fluorescence lifetime (in O=P(c1ccccc1)(c1ccccc1)c1ccccc1Oc1ccccc1P(=O)(c1ccccc1)c1ccccc1): 3.9 ns

Compound: CCn1c(=O)nc2n(C)c3cc(C)ccc3nc-2c1=O
fluorescence lifetime (in CC#N): 7 ns
fluorescence lifetime (in CO): 6.3 ns
fluorescence lifetime (in ClCCCl): 6.5 ns

Compound: CC1(C)c2ccccc2N(c2ccc(S(=O)(=O)c3ccc(N4c5ccccc5C(C)(C)c5ccccc54)cc3)cc2)c2ccccc21
fluorescence lifetime (in C1COCCO1): 21 ns
fluorescence lifetime (in CC(C)=O): 20 ns
fluorescence lifetime (in Cc1ccccc1): 20 ns
fluorescence lifetime (in ClC(Cl)Cl): 21 ns
fluorescence lifetime [1]: 21 ns

Compound: COc1cc2cc(-c3ccc(C(=O)OCOC(C)=O)cc3C(=O)OCOC(C)=O)oc2cc1N1CCOCCOCCN(c2cc3oc(-c4ccc(C(=O)OCOC(C)=O)cc4C(=O)OCOC(C)=O)cc3cc2OC)CCOCCOCC1
fluorescence lifetime (in O): 0.52 ns

Compound: Nc1ccc2c(-c3ccc(C(=O)CN4C(=O)CCC4=O)cc3C(=O)[O-])c3ccc(=[NH2+])c(S(=O)(=O)[O-])c-3oc2c1S(=O)(=O)[O-]
fluorescence lifetime (in O): 4.1 ns

Compound: c1ccc(N(c2ccccc2)c2cc3c4c(c2)N(c2ccccc2)c2cc5c(cc2B4c2ccccc2N3c2ccccc2)B2c3ccccc3N(c3ccccc3)c3cc(N(c4ccccc4)c4ccccc4)cc(c32)N5c2ccccc2)cc1
fluorescence lifetime (in Cc1ccccc1-c1cccc(Oc2cc3c4c(c2)Oc2cc(-c5ccccc5C)ccc2B4c2ccc(-c4ccccc4C)cc2O3)c1): 4.1 ns

Compound: CCC1(CC)c2ccccc2-c2c1c1c(c3c2C(CC)(CC)c2cc(/C=C/c4cccs4)ccc2-3)C(CC)(CC)c2cc(/C=C/c3cccs3)ccc2-1
fluorescence lifetime (in C1CCOC1): 1.5 ns

Compound: N#Cc1c(-n2c3ccccc3c3ccccc32)c(-n2c3ccccc3c3ccccc32)c(C#N)c(-n2c3ccccc3c3ccccc32)c1-n1c2ccccc2c2ccccc21
fluorescence lifetime (in Cc1ccccc1): 8.8 ns

Compound: Cn1nc(-c2ccccc2)c2n[nH]nc2c1=O
fluorescence lifetime (in CC#N): 2 ns
fluorescence lifetime (in CCO): 1.9 ns
fluorescence lifetime (in Cc1ccccc1): 1.2 ns

Compound: c1ccc(-c2nc(-c3ccccc3)nc(-c3cc(-n4c5ccccc5c5ccccc54)c(-n4c5ccccc5c5ncccc54)c(-n4c5ccccc5c5ccccc54)c3)n2)cc1
fluorescence lifetime (in O=P(c1ccccc1)(c1ccccc1)c1ccc2oc3ccc(P(=O)(c4ccccc4)c4ccccc4)cc3c2c1): 20.4 ns

Compound: CC(C)(C)c1ccc(/C=C/c2ccc(N(c3ccc(/C=C/c4ccc(C(C)(C)C)cc4)cc3)c3ccc(-c4nc5ccccc5nc4-c4ccc(N(c5ccc(/C=C/c6ccc(C(C)(C)C)cc6)cc5)c5ccc(/C=C/c6ccc(C(C)(C)C)cc6)cc5)cc4)cc3)cc2)cc1
fluorescence lifetime (in C1CCOC1): 2.3 ns

Compound: O=C1c2ccccc2-c2ccc(N3CCN(c4ccccc4)CC3)c3cccc1c23
fluorescence lifetime (in C1CCCCC1): 7.85 ns
fluorescence lifetime (in C1CCOC1): 2.59 ns
fluorescence lifetime (in C1COCCO1): 8.98 ns
fluorescence lifetime (in CC1COC(=O)O1): 0.09 ns
fluorescence lifetime (in CC#N): 0.03 ns
fluorescence lifetime (in CC(C)=O): 0.09 ns
fluorescence lifetime (in CCCCCCCCO): 0.29 ns
fluorescence lifetime (in CCCCCO): 0.22 ns
fluorescence lifetime (in CCCCO): 0.16 ns
fluorescence lifetime (in CCCO): 0.22 ns
fluorescence lifetime (in CCO): 0.07 ns
fluorescence lifetime (in CCOC(C)=O): 2 ns
fluorescence lifetime (in CN(C)C=O): 0.06 ns
fluorescence lifetime (in CO): 0.03 ns
fluorescence lifetime (in CS(C)=O): 0.06 ns
fluorescence lifetime (in Cc1ccccc1): 9.06 ns
fluorescence lifetime (in ClC(Cl)Cl): 8.88 ns

Compound: CCC1=C(C)C2=C(C)c3cccn3[B-](F)(F)[N+]2=C1C
fluorescence lifetime (in C1CCCCC1): 5.46 ns
fluorescence lifetime (in CC(C)=O): 5.66 ns
fluorescence lifetime (in CCO): 5.73 ns
fluorescence lifetime (in CCOC(C)=O): 5.57 ns
fluorescence lifetime (in CO): 5.78 ns
fluorescence lifetime (in OCC(F)(F)F): 6.17 ns

Compound: CN(C)c1ccc(C2=Cc3cc(Cl)nc[n+]3[B-](F)(F)O2)cc1
fluorescence lifetime (in C1CCOC1): 2.6 ns
fluorescence lifetime (in CC#N): 0.3 ns
fluorescence lifetime (in CCCCCC): 1.9 ns
fluorescence lifetime (in Cc1ccccc1): 2.3 ns
fluorescence lifetime (in ClC(Cl)Cl): 2.5 ns
fluorescence lifetime (in ClCCl): 2.8 ns

Compound: CC(C)(C)c1ccc2c(c1)c1cc(C(C)(C)C)ccc1n2-c1ccc(-n2c3ccc(C(C)(C)C)cc3c3cc(C(C)(C)C)ccc32)c(-c2nccnc2C#N)c1
fluorescence lifetime [1]: 7.2 ns

Compound: O=C([O-])c1ccc(C2=c3cc4c5c(c3Oc3c2cc2c6c3CCCN6CCC2)CCC[N+]=5CCC4)c(C(=O)[O-])c1
fluorescence lifetime (in CCO): 4.87 ns
fluorescence lifetime (in O): 4.36 ns

Now from value to compound:

fluorescence lifetime (in C1CCOC1): 0.5 ns
Compound: COc1ccc(C(=Cc2ccc(/C=C(\C#N)c3ccccc3)cc2)c2ccc(OC)cc2)cc1

fluorescence lifetime (in C1CCCCC1): 0.8 ns
fluorescence lifetime (in CC#N): 2.3 ns
fluorescence lifetime (in c1ccccc1): 1.4 ns
Compound: Nc1cccc2c1C(=O)c1ccccc1-2

fluorescence lifetime (in CC#N): 0.5 ns
Compound: COc1ccc(/C=C/c2ccccc2)cc1OC

fluorescence lifetime (in C1CCOC1): 4.22 ns
Compound: CCn1c2ccccc2c2cc(C#Cc3cc(C#Cc4ccc5c(c4)c4ccccc4n5CC)nc(S(C)(=O)=O)n3)ccc21

fluorescence lifetime (in CC#N): 19.4 ns
fluorescence lifetime (in CO): 17.8 ns
fluorescence lifetime (in ClCCl): 20.6 ns
fluorescence lifetime (in OCC(O)CO): 18.3 ns
Compound: CCCn1c2cccc3oc4cccc5c4[c+](c32)c2c1cccc2n5CCC

fluorescence lifetime (in ClCCl): 2.75 ns
Compound: Oc1ccccc1-c1nc2c(c3c1-c1ccccc1CC3)-c1ccccc1CC2

fluorescence lifetime (in c1ccccc1): 2.1 ns
Compound: COc1ccc(-c2nc3c(ccc4ccccc43)oc2=O)cc1

fluorescence lifetime (in c1cc(-c2cccc(-n3c4ccccc4c4ccccc43)c2)cc(-n2c3ccccc3c3ccccc32)c1): 68 ns
Compound: CC1(C)c2ccccc2N(c2ccc3c(c2)c2ccccc2c2nc4ccccc4nc32)c2ccccc21

fluorescence lifetime (in CC#N): 8.7 ns
fluorescence lifetime (in ClCCl): 3.3 ns
Compound: Cc1ccc(-c2cc(C)[o+]c(C)c2)cc1

fluorescence lifetime (in C1CCOC1): 4.4 ns
Compound: C[Si](C)(C)c1ccc(-c2ccc(-c3ccc(-c4ccc(-c5ccc([Si](C)(C)C)s5)cc4)c4nsnc34)cc2)s1

fluorescence lifetime (in ClC(Cl)Cl): 2.34 ns
Compound: CN(C)c1ccc(C2=Cc3c4ccccc4cc[n+]3[B-](F)(F)O2)cc1

fluorescence lifetime (in ClC(Cl)Cl): 13.7 ns
Compound: CCCCCCN1C(=O)c2cccc3cc(/N=C\c4cnc5ccccc5c4)cc(c23)C1=O

fluorescence lifetime (in C1CCOC1): 5.02 ns
fluorescence lifetime (in C1COCCO1): 5.29 ns
fluorescence lifetime (in CC#N): 4.91 ns
fluorescence lifetime (in CCCCCCC): 4.54 ns
fluorescence lifetime (in CCO): 3.66 ns
fluorescence lifetime (in O): 4.2 ns
fluorescence lifetime (in OCC(O)CO): 2.17 ns
fluorescence lifetime (in OCCO): 2.8 ns
Compound: CCOC(=O)C1CC(c2c(C#N)c(C)nn2-c2ccccc2)=CN1c1ccc(Br)cc1 (stereo not given)

fluorescence lifetime (in C1CCCCC1): 2.2 ns
Compound: CN(C)c1ccc2nc(-c3ccc(C(=O)OC(C)(C)C)cc3)sc2c1

fluorescence lifetime (in C1CCCCC1): 7 ns
Compound: Cc1cc(C)c(B(c2c(C)cc(C)cc2C)c2cc3cc(N(C)C)c4ccccc4c3c3c2ccc2ccccc23)c(C)c1

fluorescence lifetime (in ClC(Cl)Cl): 10.7 ns
Compound: Cc1cc(=O)oc2cc3c(cc12)c1c2ccccc2c2ccccc2c1c1c2ccccc2c2ccccc2c31

fluorescence lifetime (in ClCCl): 7.3 ns
Compound: CC1=C2c3ccccc3C(c3[nH]c(C)cc3C)=[N+]2[B-](F)(F)n2c(C)cc(C)c21

fluorescence lifetime (in CC#N): 1.5 ns
Compound: O=C(O)c1ccc(-c2ccc(-c3nc(-c4ccccc4)c4ccccn34)cc2)s1

fluorescence lifetime (in CC#N): 0.78 ns
Compound: F[B-]1(F)n2c(-c3ccccc3)cc(-c3ccccc3)c2N=C2C(c3ccccc3)=CC(c3ccccc3)=[N+]21

fluorescence lifetime (in CC#N): 2.6 ns
Compound: F[B-]1(F)OC(c2ccc3c(c2)Cc2ccccc2-3)=CC(c2ccccc2)=[O+]1

fluorescence lifetime (in C1CCOC1): 1.86 ns
Compound: CCn1c2ccccc2c2cc(-c3cc(-c4ccc5c(c4)c4ccccc4n5CC)ncn3)ccc21

fluorescence lifetime (in C1CCOC1): 2.9 ns
Compound: CCn1c2ccccc2c2cc(C#Cc3cc(C#Cc4ccc5c(c4)c4ccccc4n5CC)nc(N4CCCCC4)n3)ccc21

fluorescence lifetime (in CC#N): 3.72 ns
Compound: C1=Cc2ccccc2Cc2ccccc21

fluorescence lifetime (in C1CCCCC1): 0.4 ns
fluorescence lifetime (in CC#N): 17.8 ns
fluorescence lifetime (in CCO): 1.9 ns
fluorescence lifetime (in c1ccccc1): 2.8 ns
Compound: O=C1c2ccccc2-c2ccccc21

fluorescence lifetime (in ClCCl): 6.1 ns
Compound: CN(C)c1ccc(C2=Cc3ccccc3P2(=O)c2ccccc2)cc1 (stereo not given)

fluorescence lifetime (in CC#N): 5.7 ns
Compound: Cc1c2ccc3c(C)[n+](C)ccc3c2cc[n+]1C

fluorescence lifetime (in CC#N): 0.43 ns
fluorescence lifetime (in CCCCCC): 0.34 ns
Compound: C(=C\c1ccc2ccccc2c1)/c1ccc(Nc2ccccc2)cc1

fluorescence lifetime (in ClC(Cl)Cl): 1.35 ns
Compound: CCCCc1cc(-c2cccc(COC)c2)oc1-c1cccc(COC)c1

fluorescence lifetime (in C1CCCCC1): 24.1 ns
fluorescence lifetime (in CC#N): 31 ns
fluorescence lifetime (in CO): 30.7 ns
fluorescence lifetime (in ClCCl): 27.1 ns
Compound: COc1ccc2c(c1)c1c(OC)c3ccccc3c(OC)c1n2C
